Results reported in PubChem BioAssay AID1259407 (Chemical Carcinogenesis Research Information System (CCRIS), 2018).
Activity calls are given as the source filed them. The rule behind the calls is not given here.

Tested on: CCRIS mutagenicity, Ames/micronucleus/aberration tests
Test: CCRIS mutagenicity studies
[1] = Test System: AMES SALMONELLA TYPHIMURIUM, Strain/Indicator: TA98, Metabolic Activation: NONE, Method: STANDARD PLATE
[2] = Test System: AMES SALMONELLA TYPHIMURIUM, Strain/Indicator: TA98, Metabolic Activation: RAT, LIVER, S-9, AROCLOR 1254, Method: STANDARD PLATE
[3] = Test System: AMES SALMONELLA TYPHIMURIUM, Strain/Indicator: TA100, Metabolic Activation: NONE, Method: STANDARD PLATE
[4] = Test System: AMES SALMONELLA TYPHIMURIUM, Strain/Indicator: TA100, Metabolic Activation: RAT, LIVER, S-9, AROCLOR 1254, Method: STANDARD PLATE
[5] = Test System: AMES SALMONELLA TYPHIMURIUM, Strain/Indicator: TA1535, Metabolic Activation: NONE, Method: STANDARD PLATE
[6] = Test System: AMES SALMONELLA TYPHIMURIUM, Strain/Indicator: TA1537, Metabolic Activation: NONE, Method: STANDARD PLATE
[7] = Test System: AMES SALMONELLA TYPHIMURIUM, Strain/Indicator: TA1538, Metabolic Activation: NONE, Method: STANDARD PLATE
[8] = Test System: AMES SALMONELLA TYPHIMURIUM, Strain/Indicator: TA1538, Metabolic Activation: RAT, LIVER, S-9, AROCLOR 1254, Method: STANDARD PLATE
[9] = Test System: AMES SALMONELLA TYPHIMURIUM, Strain/Indicator: TA100, Metabolic Activation: RAT, LIVER, S-9, AROCLOR 1254, Method: PREINCUBATION
[10] = Test System: AMES SALMONELLA TYPHIMURIUM, Strain/Indicator: TA98, Metabolic Activation: NONE, Method: PREINCUBATION
[11] = Test System: AMES SALMONELLA TYPHIMURIUM, Strain/Indicator: TA100, Metabolic Activation: NONE, Method: PREINCUBATION
[12] = Test System: AMES SALMONELLA TYPHIMURIUM, Strain/Indicator: TA1535, Metabolic Activation: NONE, Method: PREINCUBATION

With `CSC(C)(C)/C=N/O` the mutagenic call (End Point: IN VITRO CHROMOSOMAL ABERRATIONS, Test System: CHO-LB CELLS, Metabolic Activation: NONE) was “inactive; negative”, the mutagenic call (End Point: IN VITRO CHROMOSOMAL ABERRATIONS, Test System: CHO-LB CELLS, Metabolic Activation: RAT, LIVER, S-9, AROCLOR 1254) was “inactive; negative” and the mutagenic call (Test System: AMES SALMONELLA TYPHIMURIUM, Strain/Indicator: TA98, Metabolic Activation: HAMSTER, LIVER, S-9, AROCLOR 1254, Method: STANDARD PLATE) was “inactive; negative”. The mutagenic call [1] was “inactive; negative”, the mutagenic call [2] was “inactive; negative” and the mutagenic call (Test System: AMES SALMONELLA TYPHIMURIUM, Strain/Indicator: TA100, Metabolic Activation: HAMSTER, LIVER, S-9, AROCLOR 1254, Method: STANDARD PLATE) was “inactive; negative”. The mutagenic call [3] was “inactive; negative”, the mutagenic call [4] was “inactive; negative” and the mutagenic call (Test System: AMES SALMONELLA TYPHIMURIUM, Strain/Indicator: TA1535, Metabolic Activation: HAMSTER, LIVER, S-9, AROCLOR 1254, Method: STANDARD PLATE) was “inactive; negative”. The mutagenic call [5] was “inactive; negative”, the mutagenic call (Test System: AMES SALMONELLA TYPHIMURIUM, Strain/Indicator: TA1535, Metabolic Activation: RAT, LIVER, S-9, AROCLOR 1254, Method: STANDARD PLATE) was “inactive; negative” and the mutagenic call (Test System: AMES SALMONELLA TYPHIMURIUM, Strain/Indicator: TA1537, Metabolic Activation: HAMSTER, LIVER, S-9, AROCLOR 1254, Method: STANDARD PLATE) was “inactive; negative”. The mutagenic call [6] was “inactive; negative”, the mutagenic call (Test System: AMES SALMONELLA TYPHIMURIUM, Strain/Indicator: TA1537, Metabolic Activation: RAT, LIVER, S-9, AROCLOR 1254, Method: STANDARD PLATE) was “inactive; negative” and the mutagenic call (Test System: AMES SALMONELLA TYPHIMURIUM, Strain/Indicator: TA1538, Metabolic Activation: HAMSTER, LIVER, S-9, AROCLOR 1254, Method: STANDARD PLATE) was “inactive; negative”. The mutagenic call [7] was “inactive; negative”, the mutagenic call [8] was “inactive; negative” and the mutagenic call (Test System: MOUSE LYMPHOMA, Strain/Indicator: L5178Y (TK+/TK-), Metabolic Activation: NONE, Method: SUSPENSION/PLATE) was “inactive; negative. reevaluation of results: equivocal”. For the same compound, the mutagenic call (Test System: MOUSE LYMPHOMA, Strain/Indicator: L5178Y (TK+/TK-), Metabolic Activation: RAT, LIVER, S-9, AROCLOR 1254, Method: SUSPENSION/PLATE) was “inactive; negative. reevaluation of results: negative”.

In the case of `Oc1cccc2c3ccccc3c3cc4ccccc4cc3c12`, the mutagenic call [9] is reported as “inactive; negative”.

In the case of `Cc1cc(-c2ccccc2C)ccc1N`, the mutagenic call [2] is reported as “active; positive”, the mutagenic call [4] is reported as “active; positive” and the mutagenic call [8] is reported as “active; positive”. For the same compound, the mutagenic call (Test System: UDS RODENT HEPATOCYTES, Strain/Indicator: THY INCORP (NON-S-PHASE), Method: AUTORADIOGRAPHY) was “active; positive”.

For `O=[N+]([O-])c1c(-c2ccc(Cl)cc2)nc2sccn12`, the mutagenic call [1] was “active; positive”, the mutagenic call [3] was “inactive; negative” and the mutagenic call [5] was “inactive; negative”. The mutagenic call [6] was “active; positive” and the mutagenic call [7] was “active; positive”.

`C=C1C/C(=C/C)C(=O)O[C@@H]2CCN3CC=C(COC(=O)[C@]1(C)O)[C@H]23` was tested, and the mutagenic call (Test System: AMES SALMONELLA TYPHIMURIUM, Strain/Indicator: TA97, Metabolic Activation: HAMSTER, LIVER, S-9, AROCLOR 1254 (5, 10 OR 30%), Method: PREINCUBATION) was “inactive; negative”, the mutagenic call (Test System: AMES SALMONELLA TYPHIMURIUM, Strain/Indicator: TA97, Metabolic Activation: NONE, Method: PREINCUBATION) was “inactive; negative” and the mutagenic call (Test System: AMES SALMONELLA TYPHIMURIUM, Strain/Indicator: TA97, Metabolic Activation: RAT, LIVER, S-9, AROCLOR 1254 (5, 10 OR 30%), Method: PREINCUBATION) was “inactive; negative”. For the same compound, the mutagenic call (Test System: AMES SALMONELLA TYPHIMURIUM, Strain/Indicator: TA98, Metabolic Activation: HAMSTER, LIVER, S-9, AROCLOR 1254 (10%), Method: PREINCUBATION) was “inactive; negative”, the mutagenic call [10] was “inactive; negative” and the mutagenic call (Test System: AMES SALMONELLA TYPHIMURIUM, Strain/Indicator: TA98, Metabolic Activation: RAT, LIVER, S-9, AROCLOR 1254 (10%), Method: PREINCUBATION) was “inactive; negative”. For the same compound, the mutagenic call (Test System: AMES SALMONELLA TYPHIMURIUM, Strain/Indicator: TA100, Metabolic Activation: HAMSTER, LIVER, S-9, AROCLOR 1254 (5%), Method: PREINCUBATION) was “inactive; negative”, the mutagenic call (Test System: AMES SALMONELLA TYPHIMURIUM, Strain/Indicator: TA100, Metabolic Activation: HAMSTER, LIVER, S-9, AROCLOR 1254 (10 OR 30%), Method: PREINCUBATION) was “active; positive” and the mutagenic call (Test System: AMES SALMONELLA TYPHIMURIUM, Strain/Indicator: TA100, Metabolic Activation: HAMSTER, LIVER, S-9, PCB, Method: PREINCUBATION) was “inactive; negative”. The mutagenic call [11] was “inactive; negative”, the mutagenic call (Test System: AMES SALMONELLA TYPHIMURIUM, Strain/Indicator: TA100, Metabolic Activation: RAT, LIVER, S-9, AROCLOR 1254 (5 OR 30%), Method: PREINCUBATION) was “inactive; negative” and the mutagenic call (Test System: AMES SALMONELLA TYPHIMURIUM, Strain/Indicator: TA100, Metabolic Activation: RAT, LIVER, S-9, AROCLOR 1254 (10%), Method: PREINCUBATION) was “inactive; negative”. For the same compound, the mutagenic call (Test System: AMES SALMONELLA TYPHIMURIUM, Strain/Indicator: TA100, Metabolic Activation: RAT, LIVER, S-9, PCB, Method: PREINCUBATION) was “inactive; negative”, the mutagenic call (Test System: AMES SALMONELLA TYPHIMURIUM, Strain/Indicator: TA100, Metabolic Activation: RAT, LIVER, S-9, SODIUM PHENOBARBITAL AND BETA-NAPHTHOFLAVONE, Method: PREINCUBATION) was “inactive; negative” and the mutagenic call (Test System: AMES SALMONELLA TYPHIMURIUM, Strain/Indicator: TA1535, Metabolic Activation: HAMSTER, LIVER, S-9, AROCLOR 1254 (10%), Method: PREINCUBATION) was “inactive; negative”. For the same compound, the mutagenic call [12] was “inactive; negative”, the mutagenic call (Test System: AMES SALMONELLA TYPHIMURIUM, Strain/Indicator: TA1535, Metabolic Activation: RAT, LIVER, S-9, AROCLOR 1254 (10%), Method: PREINCUBATION) was “inactive; negative” and the mutagenic call (Test System: UDS HAMSTER HEPATOCYTES, Strain/Indicator: THY INCORP, Metabolic Activation: NONE, Method: AUTORADIOGRAPHY) was “active; positive”. For the same compound, the mutagenic call (Test System: UDS MOUSE HEPATOCYTES, Strain/Indicator: THY INCORP, Metabolic Activation: NONE, Method: AUTORADIOGRAPHY) was “active; positive” and the mutagenic call (Test System: UDS RAT HEPATOCYTES, Strain/Indicator: THY INCORP, Metabolic Activation: NONE, Method: AUTORADIOGRAPHY) was “active; positive”.

`CC1CCC(C(C)C)C(O)C1` (stereo unspecified) was tested, and the mutagenic call (End Point: IN VITRO CHROMOSOMAL ABERRATIONS, Test System: CHO CELLS, Metabolic Activation: NONE) was “active; positive” and the mutagenic call (End Point: IN VITRO CHROMOSOMAL ABERRATIONS, Test System: TK6 HUMAN LYMPHOBLASTS, Metabolic Activation: NONE) was “active; positive”.

`O=C(O)/C=C/c1cccc([N+](=O)[O-])c1` was tested, and the mutagenic call [10] was “inactive; negative”, the mutagenic call [1] was “inactive; negative” and the mutagenic call [2] was “inactive; negative”. The mutagenic call [11] was “active; positive”, the mutagenic call [3] was “active; positive” and the mutagenic call [9] was “active; positive”. The mutagenic call [4] was “inactive; negative”, the mutagenic call [12] was “active; positive” and the mutagenic call (Test System: AMES SALMONELLA TYPHIMURIUM, Strain/Indicator: TA1537, Metabolic Activation: NONE, Method: PREINCUBATION) was “inactive; negative”. For the same compound, the mutagenic call (Test System: AMES SALMONELLA TYPHIMURIUM, Strain/Indicator: TA1538, Metabolic Activation: NONE, Method: PREINCUBATION) was “inactive; negative”.
